In US20230330254A1 (Regeneron Pharmaceuticals, Inc., priority 2022, published 2023):
Where a SMILES comes first, the peptide text is derived from it. [ ]: non-standard residue; d: D form. The star is where a group is joined. Bip(2'-Et,4'-O(CH2)4NH2) = CCc1cc(OCCCCN)ccc1-c1ccc(C[C@H](N)C(=O)O)cc1; Nva(5-(3,5-Me2Ph)) = Cc1cc(C)cc(CCC[C@H](N)C(=O)O)c1; Ala(1H-tetrazol-5-yl) = N[C@@H](Cc1nnn[nH]1)C(=O)O; αMePhe(2-F) = C[C@](N)(Cc1ccccc1F)C(=O)O; X3 = CC(C)(C(=O)*)c1ccn[nH]1; X1 = O=C(CCCCCc1cnc[nH]1)*; X2 = CC(C)(C(N)=O)C(=O)*; X4 = CC(C)(C(=O)O)C(=O)*

What was measured:
[1] = Plasma stability of payloads and linker-payloads, human plasma; format: in vitro ADME; details: plasma, pH 7.4, tested time A (1 day per footnote), 2 μM, 37° C., read-out: Human plasma stability assay T½ (converted)
Method: The plasma stability of payloads and linker payloads of the disclosure were measured. For the assay, pooled frozen plasma (human, mouse or monkey) was thawed in cold water or a 37° C. water bath prior to experiment. Plasma was centrifuged at 4000 rpm for 5 min if any clots were observed, they were subsequently removed. If required, the pH was adjusted to 7.4±0.1. For the preparation of compounds and positive controls, a 1 mM intermediate solution was prepared by diluting 10 μL of their stock solution with 90 μL DMSO; a 1 mM intermediate solution of the positive control (Propantheline) was prepared by diluting 10 μL of its stock solution with 90 μL ultrapure water. […] 98 μL of plasma was spiked with 2 μL of dosing solution (100 μM) to achieve the final concentration of 2 μM in duplicate. Samples were then incubated at 37° C. in a water bath. […] At each time point, 400 μL of stop solution (200 ng/mL tolbutamide plus 200 ng/mL labetalol in 50% ACN/MeOH) was added to precipitate protein and mixed thoroughly. Sample plates were then centrifuged at 4,000 rpm for 10 min. An aliquot of supernatant (50 μL) was transferred from each well and mixed with 100 μL ultrapure water. The samples were then shaken at 800 rpm for approximately 10 min before submitting for LC-MS/MS analysis.

HEK293/CRE-Luc cells [2] = assay: Luciferase reporter assay, HEK293/CRE-Luc cells without hGLP1R (Example 11); format: cell-based, human; details: Table 11; Experiment A; no hGLP1R expression
From the text: (§1) To test the activity of GLP1R agonist payloads, GLP1R agonist linker-payloads (LPs), and anti-GLP1R antibody tethered drug conjugates (ATDCs) of the disclosure, a cell-based cAMP responsive luciferase reporter assay was developed. To generate the assay cell line, the firefly luciferase gene was placed under the control of a cAMP response element (CRE) located upstream of a minimal promoter and transfected into HEK293 cells and referred to herein as HEK293/CRE-Luc cells.
(§2) Three-fold serial dilutions of free payloads or LPs were prepared in 100% DMSO, transferred to fresh assay media, and added to the cells at a final constant DMSO concentration of 0.2%. The last well in the plate served as a blank control containing only the assay media and 0.2% DMSO (untreated well) and was plotted as a continuation of the 3-fold serial dilution. Four to six hours later, luciferase activity was determined after the addition of One-Glo™ reagent (Promega, Cat #E6130) to each well. Relative light units (RLUs) were measured on an Envision luminometer (PerkinElmer) and EC50 values were determined using a four-parameter logistic equation over a 12-point dose response curve (GraphPad Prism). The signal to noise (S/N) was determined by taking the ratio of the highest RLU on the dose response curve to the RLU in the untreated wells.

HEK293/CRE-Luc cells [3] = assay: Luciferase reporter assay, HEK293/CRE-Luc cells without GLP1R (Example 17); format: cell-based, human; details: HEK293/CRE-Luc cells without hGLP1R, payloads and linker-payloads; for EC50: read-out: EC50
In short: (§3)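 HEK293 cells carrying a CRE-driven firefly luciferase reporter were exposed to 3-fold serial dilutions of payloads or linker-payloads (12 points, 0.2% DMSO final) for 4–6 h, then luminescence was read. EC50 came from a four-parameter logistic fit; S/N is top RLU over untreated wells, and relative potency and S/N are referenced to M2361.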

[4] = Plasma stability of payloads (t½)
human GLP1R [5] = target: T1, human GLP1R (Homo sapiens, UniProt P43220); assay: Luciferase reporter assay, HEK293/CRE-Luc/hGLP1R cells (Example 11); format: cell-based; parameters: engineered to express full-length human GLP1R, cynomolgus GLP1R; expressed in transfected cells; host or cells: HEK293/CRE-Luc; details: Table 11; Experiment A
From the text: as §1, §2
GLP1R agonist linker payloads were conjugated to anti-hGLP1R antibodies via N-terminal heavy or light chain Q tags. Several resulting anti-GLP1R antibody tethered drug conjugates (ATDCs) were tested for activity in the HEK293/CRE-Luc/hGLP1R reporter assay as described above for the free GLP1R payload and linker-payload agonists.

human GLP1R [6] = target: T1, human GLP1R; assay: Luciferase reporter assay, HEK293/CRE-Luc/hGLP1R (Example 17); format: cell-based; parameters: engineered to express full-length human GLP1R, cynomolgus GLP1R; expressed in transfected cells; host or cells: HEK293/CRE-Luc; details: HEK293/CRE-Luc/hGLP1R; for S/N: highest RLU / RLU of untreated wells; for EC50: payloads and linker-payloads, experiments A-E, M2361 repeated in each, read-out: EC50; for Relative Potency (% M2361 EC50) / Relative Signal:Noise (% M2361): relative to M2361 of the same experiment
In short: as §3

human GLP1R [7] = target: T1, human GLP1R; assay: Human GLP1R cAMP accumulation assay; format: cell-based; parameters: HEK293 cells over-expressing full length human GLP-1R were utilized; expressed in transfected cells; host or cells: HEK293 (HEK293/hGLP1R); details: HEK293/hGLP1R cells; Table 4; read-out: cAMP EC50
In short: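 cAMP accumulation measured after 30 min at 23° C, with 500 μM IBMX in HEPES-buffered HBSS plus 0.1% BSA, in HEK293 cells expressing full-length hGLP-1R. Levels read by D2-cAMP/antibody immunoassay via standard curve, scaled between low and high controls. EC50 fitted four-parameter over a 10-point curve.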

T1 sequence (P43220 24-463): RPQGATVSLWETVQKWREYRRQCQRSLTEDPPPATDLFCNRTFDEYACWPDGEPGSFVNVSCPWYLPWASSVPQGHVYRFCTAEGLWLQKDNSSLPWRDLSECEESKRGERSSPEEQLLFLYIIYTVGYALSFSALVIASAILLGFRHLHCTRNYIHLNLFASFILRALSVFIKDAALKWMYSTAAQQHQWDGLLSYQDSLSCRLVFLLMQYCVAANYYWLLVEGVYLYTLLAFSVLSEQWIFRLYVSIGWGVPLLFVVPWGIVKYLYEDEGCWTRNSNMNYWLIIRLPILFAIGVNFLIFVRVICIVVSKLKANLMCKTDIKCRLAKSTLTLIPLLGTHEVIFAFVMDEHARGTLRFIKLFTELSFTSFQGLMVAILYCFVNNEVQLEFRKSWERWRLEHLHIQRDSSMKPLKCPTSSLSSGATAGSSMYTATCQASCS

| SMILES | half-life at 2 µM [1] [h] | EC50 (HEK293/CRE-Luc cells [2]) [nM] | HEK293/CRE-LUC S/N (HEK293/CRE-Luc cells [2]) | S/N (HEK293/CRE-Luc cells [3]) | EC50 (HEK293/CRE-Luc cells [3]) [nM] | Plasma stability t½ [4] [h] | EC50 (human GLP1R [5]) [nM] | HEK293/CRE-LUC/hGLP1R Relative Potency (% P8 EC50) (human GLP1R [5]) [%] | HEK293/CRE-LUC/hGLP1R S/N (human GLP1R [5]) | S/N (human GLP1R [6]) | EC50 (human GLP1R [6]) [nM] | Relative Potency (% M2361 EC50) (human GLP1R [6]) [%] | Relative Signal:Noise (% M2361) (human GLP1R [6]) [%] | EC50 (human GLP1R [7]) [nM] |
| --- | --- | --- | --- | --- | --- | --- | --- | --- | --- | --- | --- | --- | --- | --- |
| CCc1cc(OCCCCN)ccc1-c1ccc(C[C@H](NC(=O)[C@H](CC(=O)O)NC(=O)[C@H](CO)NC(=O)[C@@H](NC(=O)[C@](C)(Cc2ccccc2F)NC(=O)[C@@H](NC(=O)CNC(=O)[C@H](Cc2nn[nH]n2)NC(=O)C(C)(C)C(=O)O)[C@@H](C)O)[C@@H](C)O)C(=O)N[C@@H](CCCc2cc(C)cc(C)c2)C(N)=O)cc1 [P3] (X4-[Ala(1H-tetrazol-5-yl)]GT[αMePhe(2-F)]TSD[Bip(2'-Et,4'-O(CH2)4NH2)][Nva(5-(3,5-Me2Ph))]-NH2) | > 57.8 | > 200 | 1.2 | 1.2 | > 200 | >57.8 | 1.95 | 0.3 | 46.3 | 46.3 | 1.95 | 0.3 | 70.3 | 1.43 |
| CCc1cc(OCCCCN)ccc1-c1ccc(C[C@H](NC(=O)[C@H](CC(=O)O)NC(=O)[C@H](CO)NC(=O)[C@@H](NC(=O)[C@](C)(Cc2ccccc2F)NC(=O)[C@@H](NC(=O)CNC(=O)[C@H](Cc2nn[nH]n2)NC(=O)C(C)(C)C(N)=O)[C@@H](C)O)[C@@H](C)O)C(=O)N[C@@H](CCCc2cc(C)cc(C)c2)C(N)=O)cc1 [P4] (X2-[Ala(1H-tetrazol-5-yl)]GT[αMePhe(2-F)]TSD[Bip(2'-Et,4'-O(CH2)4NH2)][Nva(5-(3,5-Me2Ph))]-NH2) | > 57.8 | > 200 | 1.6 | 1.6 | > 200 | >57.8 | 0.0837 | 6.3 | 66.9 | 66.9 | 0.0837 | 6.3 | 101.8 | 0.156 |
| CCc1cc(OCCCCN)ccc1-c1ccc(C[C@H](NC(=O)[C@H](CC(=O)O)NC(=O)[C@H](CO)NC(=O)[C@@H](NC(=O)[C@](C)(Cc2ccccc2F)NC(=O)[C@@H](NC(=O)CNC(=O)[C@H](Cc2nn[nH]n2)NC(=O)C(C)(C)c2ccn[nH]2)[C@@H](C)O)[C@@H](C)O)C(=O)N[C@@H](CCCc2cc(C)cc(C)c2)C(N)=O)cc1 [P6] (X3-[Ala(1H-tetrazol-5-yl)]GT[αMePhe(2-F)]TSD[Bip(2'-Et,4'-O(CH2)4NH2)][Nva(5-(3,5-Me2Ph))]-NH2) | > 57.8 | > 200 | 1.0 | 1.0 | > 200 | >57.8 | 0.602 | 0.9 | 60.7 | 60.7 | 0.602 | 0.9 | 92.3 | 0.853 |
| CCc1cc(OCCCCN)ccc1-c1ccc(C[C@H](NC(=O)[C@H](CC(=O)O)NC(=O)[C@H](CO)NC(=O)[C@@H](NC(=O)[C@](C)(Cc2ccccc2F)NC(=O)[C@@H](NC(=O)CNC(=O)[C@H](Cc2nn[nH]n2)NC(=O)CCCCCc2cnc[nH]2)[C@@H](C)O)[C@@H](C)O)C(=O)N[C@@H](CCCc2cc(C)cc(C)c2)C(N)=O)cc1 [P11] (X1-[Ala(1H-tetrazol-5-yl)]GT[αMePhe(2-F)]TSD[Bip(2'-Et,4'-O(CH2)4NH2)][Nva(5-(3,5-Me2Ph))]-NH2) | > 57.8 | > 200 | 1.1 | 1.1 | > 200 | >57.8 | 0.685 | 0.8 | 54.8 | 54.8 | 0.685 | 0.8 | 83.4 | 1.03 |
| CCc1cc(OCCCCN)ccc1-c1ccc(C[C@H](NC(=O)[C@H](CC(=O)O)NC(=O)[C@H](CO)NC(=O)[C@@H](NC(=O)[C@](C)(Cc2ccccc2F)NC(=O)[C@@H](NC(=O)CNC(=O)[C@H](Cc2nn[nH]n2)NC(=O)[C@H](C)NC(=O)[C@H](Cc2c[nH]cn2)NC(=O)[C@@H](N)CCC(N)=O)[C@@H](C)O)[C@@H](C)O)C(=O)N[C@@H](CCCc2cc(C)cc(C)c2)C(N)=O)cc1 [P13] (H-QHA[Ala(1H-tetrazol-5-yl)]GT[αMePhe(2-F)]TSD[Bip(2'-Et,4'-O(CH2)4NH2)][Nva(5-(3,5-Me2Ph))]-NH2) | 16.9 | > 200 | 1.2 | 1.2 | > 200 | 16.9 | 0.357 | 1.5 | 69.5 | 69.5 | 0.357 | 1.5 | 105.6 | 0.914 |
